Results as given in patent publication US20230098438A1, “OXAZINE-BASED WATER-SOLUBLE FLUOROPHORE COMPOUNDS FOR IN VIVO NERVE IMAGING” (Oregon Health & Science University, priority 2020, published 2023).
Entries after “also recorded” stand apart in the source; their conditions may differ.

How the values were obtained:
[1] = test system: nerve tissue; conditions: previous studies; fluorescence nerve imaging; cited from earlier work
[2] = NOAEL (no-observed-adverse-effect-level)
[3] = Solubility testing in ultrapure water; conditions: kinetic from dmso stock
Protocol: Each compound was dissolved at high concentration (50 mg/mL) in dimethyl sulfoxide (DMSO) to create a stock solution. Stock solutions were spiked into ultrapure water beginning with a 50 μg/mL concentration and the aqueous solution was vortexed to mix. Resulting solutions were centrifuged at 15,000 rpm for 2 min and examined for a pellet or precipitation signifying insoluble compound.

[4] = no-observed-adverse-effect-level

| Compound | nerve specificity [1] | NOAEL ([2]; in vivo) [mg/kg] | solubility [3] [µg/mL] | NOAEL [2, 4] [mg/kg] |
| --- | --- | --- | --- | --- |
| CCNc1cc2oc3cc(=[N+](CC)CC)ccc-3nc2cc1C [Comparative Example No. 1, 3-(diethyl-λ4-azaneylidene)-N-ethyl-8-methyl-3H-phenoxazin-7-amine, reference compound] | high nerve specificity | 3 | 100 | – |
| CCNc1cc2oc3c/c(=[N+](\CC)CCCS(=O)(=O)[O-])ccc-3nc2cc1C [Example No. 1, (E)-3-(ethyl(7-(ethylamino)-8-methyl-3H-phenoxazin-3-ylidene)ammonio)propane-1-sulfonate] | – | 30 | > 5000 | – |
| CCNc1cc2oc3cc(=[N+](CCOCCOCCOC)CCOCCOCCOC)ccc-3nc2cc1C [Example No. 9, N-(7-(ethylamino)-8-methyl-3H-phenoxazin-3-ylidene)-2-(2-(2-methoxyethoxy)ethoxy)-N-(2-(2-(2-methoxyethoxy)ethoxy)ethyl)ethan-1-aminium] | – | 30 | > 5000 | – |
| CC/N=c1/cc2oc3cc(NCC)c(C)cc3nc-2cc1C [Oxazine 4] | high nerve-specificity; also recorded: high nerve specificity | – | – | – |
| (E)-N-ethyl-N-(7-(ethylamino)-8-methyl-3H-phenoxazin-3-ylidene)-2-(2-(2-methoxyethoxy)ethoxy)ethan-1-aminium [Example No. 7] | – | – | – | 5 |
| (E)-N^1-ethyl-N^1-(7-(ethylamino)-8-methyl-3H-phenoxazin-3-ylidene)-N^3,N^3,N^3-trimethylpropane-1,3-diaminium [Example No. 2] | – | – | – | 2 |
| N-(7-(ethylamino)-8-methyl-3H-phenoxazin-3-ylidene)-2-(2-methoxyethoxy)-N-(2-(2-methoxyethoxy)ethyl)ethan-1-aminium [Example No. 8] | – | – | – | 10 |
| N-(7-(ethylamino)-8-methyl-3H-phenoxazin-3-ylidene)-2-methoxy-N-(2-methoxyethyl)ethan-1-aminium [Example No. 5] | – | – | – | 4 |
